Measured values: US20180228743A1, “COMPOUNDS AND METHODS OF PROMOTING MYELINATION” (Case Western Reserve University, priority 2016, published 2018)
Values joined by “and” are separate entries in the source; they are usually repeats but may differ in a detail not shown here. Equal entries are not always repeated. Structures can show the parent of a compound that is named as a salt. Where two headings read alike, the source gives them in different places. One block for each compound: values may come before it.

Experiments:
EpiSC-derived OPCs [1] = experiment: In vitro phenotypic screening of OPCs (MBP+ oligodendrocytes at 72 h); format: cell-based, mouse; details: for oligodendrocyte formation in combination with ketoconazole: ketoconazole 2.5 μM (maximally effective dose)
EpiSC-derived OPCs [2] = experiment: Oligodendrocyte formation on electrospun microfibers; format: cell-based, mouse; details: 14 days
Description: A 12-well plate containing Mimetex aligned scaffold (microfiber plate, AMSBIO, AMS.TECL-006-1X, Electrospun poly-L-lactide Scaffold, […] cell crown inserts) was prepared as previously described. Briefly, inserts were sterilized with 70% ethanol and washed with PBS before being coated with polyornithine and laminin. After laminin coating, 100,000 cells/mL of EpiSC-derived OPCs were plated in differentiation medium. After 24 h the media was replaced with fresh media containing small molecule treatments. Every 48 h the media was replaced with fresh compound containing media for a total of 14 days. Plates were fixed with 4% PFA, permeabilized with 0.1% Triton X-100, and blocked with 10% donkey serum (v/v) in PBS for 60 min. Plates were stained for MBP (Abcam, ab7349; 1:100) and DAPI staining (Sigma; 5 μg/ml). After staining, the inserts were moved into new 12-well plate and covered with 2 mL of PBS before imaging in Operetta high content Imaging and analysis system. […] Analysis (PerkinElmer Harmony and Columbus software) identified intact nuclei stained by DAPI and calculated the MBP signal intensity per cell per well. Microfiber insert tracking images were taken using a Leica DMi8 with a 20× Dry/NA 0.40 objective. Microfiber plate inserts were mounted using Flouromount-G (SouthernBiotech) and allowed to partially harden before coverslips were added and the insert ring was removed. Confocal images were obtained on a Leica SP8 confocal scanning microscope, with 40× oil/NA 1.30 objective. Confocal stacks of 0.336 μm z-steps were taken at 1024×1024. Each fluorophore was excited sequentially and all contrast and brightness changes were applied consistently between images.

EBP = target: T1, EBP (Mus musculus, UniProt P70245); experiment: EBP enzymatic assay (GC/MS); format: biochemical; details: 10 μM, zymostenol 25 μM
T1 construct: active EBP was obtained from mouse microsomes; from tissue
T1 sequence (P70245 1-230): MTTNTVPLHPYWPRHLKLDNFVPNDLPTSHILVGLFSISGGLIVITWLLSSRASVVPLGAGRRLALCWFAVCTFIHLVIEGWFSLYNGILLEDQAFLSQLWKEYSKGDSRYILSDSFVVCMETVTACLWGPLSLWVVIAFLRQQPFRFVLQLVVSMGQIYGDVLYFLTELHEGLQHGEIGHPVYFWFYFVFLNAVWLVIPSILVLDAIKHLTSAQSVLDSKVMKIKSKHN

LPC-lesioned spinal cord = experiment: LPC focal demyelination of spinal cord, remyelination histology; format: in vivo, mouse; details: ifenprodil 10 mg per kg, tamoxifen 2 mg per kg, daily intraperitoneal, 8 days from day 4 after lesion
[3] = tested on: human glioma cells (GBM528); experiment: GC/MS sterol profiling in human glioma cell line; format: cell-based; details: 24 h
OPCs = experiment: GC/MS-based sterol profiling in OPCs; format: cell-based, mouse; details: for sterol levels / sterol intermediate accumulation in OPCs: 24 h treatment (siRNA 96 h)
rat CYP51 = target: T2, rat CYP51 (Rattus norvegicus, UniProt Q64654); experiment: CYP51 enzymatic assay (LC/MS quantitation of FF-MAS); format: biochemical; details: lanosterol 50 μM, 30 minutes; read-out: IC50 for inhibition of rodent CYP51 in vitro
T2 construct: purchased Cypex, Inc
T2 sequence (Q64654 1-503): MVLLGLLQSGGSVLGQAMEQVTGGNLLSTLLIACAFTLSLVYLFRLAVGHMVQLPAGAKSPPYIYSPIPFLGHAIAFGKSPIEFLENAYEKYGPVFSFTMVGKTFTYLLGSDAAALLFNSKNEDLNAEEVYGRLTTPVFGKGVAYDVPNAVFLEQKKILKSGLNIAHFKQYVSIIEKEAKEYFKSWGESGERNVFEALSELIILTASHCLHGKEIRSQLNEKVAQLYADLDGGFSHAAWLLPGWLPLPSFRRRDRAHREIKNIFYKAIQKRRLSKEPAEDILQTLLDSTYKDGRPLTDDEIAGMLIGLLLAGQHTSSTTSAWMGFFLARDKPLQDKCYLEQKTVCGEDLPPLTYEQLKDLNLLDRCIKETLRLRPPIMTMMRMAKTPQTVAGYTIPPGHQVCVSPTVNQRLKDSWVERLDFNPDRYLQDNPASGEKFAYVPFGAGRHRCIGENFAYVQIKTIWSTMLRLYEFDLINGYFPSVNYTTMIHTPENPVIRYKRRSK

[4] = tested on: human induced pluripotent stem cell-derived cortical spheroids; experiment: GC/MS sterol profiling in human cortical spheroids; format: cell-based; details: 2 μM, 24 h
EpiSC-derived OPCs [5] = experiment: High-throughput screening of 3,000 bioactive small molecules for MBP+ oligodendrocyte formation from OPCs; format: cell-based, mouse; details: 2 μM, 72 h; for % 0ligos: MBP+ oligodendrocytes; for fold induction at 2 µM: Mus musculus, relative to DMSO controls of the same plate, read-out: fold-change in % MBP + oligodendrocytes
Description: Plates were imaged on the Operetta High Content Imaging and Analysis system (PerkinElmer) and a set of 6 fields captured from each well resulting in an average of 1200 cells being scored per well. Analysis (PerkinElmer Harmony and Columbus software) began by identifying intact nuclei stained by DAPI; that is, those traced nuclei that were larger than 300 μm^2 in surface area. Each traced nucleus region was then expanded by 50% and cross-referenced with the […] (MBP) stain to identify oligodendrocyte nuclei, and from this the percentage of oligodendrocytes was calculated. In some experiments, the total process length of MBP+ oligodendrocytes was calculated as previously described.
EpiSC-derived OPCs were grown and expanded in poly-ornithine and laminin-coated flasks before harvesting for plating. Cells were dispensed in differentiation media supplemented with Noggin (R&D Systems; 100 ng/ml), Neurotrophin 3 (R&D Systems; 10 ng/ml), cAMP (Sigma; 50 μM), and IGF-1 (R&D Systems; 100 ng/ml)) using a Biotek EL406 Microplate Washer Dispenser (Biotek) equipped with 5 μL dispense cassette (Biotek), into poly-D-lysine/laminin (Sigma, L2020; 4 μg/ml)-coated sterile, 384-well, CellCarrier ultra plates (PerkinElmer), to a final density of 12,500 cells per well and allowed to attach for 45 min before addition of drug. A 3 mM stock of bioactive compound library in dimethylsulphoxide (DMSO) were prepared in an Abgene storage 384-well plate (ThermoFisher Scientific; AB1055). These were added to assay plates using a 50 nL solid pin tool attached to Janus automated workstation (Perkin Elmer), resulting in a final screening concentration of 2 μM. Cells were incubated at 37° C. for 1 hour and then T3 (Sigma; 40 ng/ml) was added to all wells except negative controls, to which FGF (20 ng/ml) was added instead. Negative controls and T3-alone were included in each assay plate. After incubation at 37° C. for 72 h, cells were fixed, washed and stained similar to 96-well OPC assay protocol, although all the washing steps were performed using a Biotek EL406 Microplate Washer Dispenser (Biotek) equipped with a 96-well aspiration manifold. Cells were stained with DAPI (Sigma; 1 μg/ml) and MBP antibody (Abcam, ab7349; 1:100). Plates were imaged on the Operetta High Content Imaging and Analysis system (PerkinElmer) and a set of 4 fields captured from each well resulting in an average of 700 cells being scored per well. Analysis was performed as in High-Content Imaging and Analysis, above. All plates for the primary screen were processed and analyzed simultaneously to minimize variability. Molecules causing more than 20% reduction in nuclear count relative to DMSO control wells were removed from consideration, and hits were called on the basis of largest fold-increase in percentage of MBP+ oligodendrocytes relative to DMSO controls within the same plate.

T47D cells = details: 5 days
[6] = mouse; cited from earlier work
mouse brain = experiment: Analysis of mouse brain sterol levels (GC/MS); format: in vivo; details: miconazole 10 mg per kg, ifenprodil 10 mg per kg, tamoxifen 2 mg per kg; 3 days intraperitoneal dosing

inhibition of EBP enzymatic activity (EBP): clear inhibition
Compound: COc1ccc(S(=O)(=O)N2CCC(N3CCC(C)CC3)CC2)cc1 [TASIN-1]
formation of MBP+ oligodendrocytes from OPCs (EpiSC-derived OPCs [1]; 72 h): enhanced formation of MBP+ oligodendrocytes
MBP+ oligodendrocyte tracking along and wrapping of microfibers (EpiSC-derived OPCs [2]): significantly enhanced MBP+ oligodendrocyte tracking along and wrapping of the microfibers

Compound: CC/C(=C(\c1ccccc1)c1ccc(OCCN(C)C)cc1)c1ccccc1 [tamoxifen, Tamoxifen]
remyelination of LPC lesion (LPC-lesioned spinal cord): remyelination was widespread throughout the lesion
sterol intermediate accumulation in human glioma cell line [3]: caused accumulation of the expected sterol intermediates
sterol levels / sterol intermediate accumulation in OPCs (OPCs): induced accumulation of zymostenol and zymosterol and decreased basal sterol levels
oligodendrocyte formation in combination with ketoconazole (EpiSC-derived OPCs [1]; 72 h): did not enhance differentiation above levels seen for ketoconazole alone
inhibition of EBP enzymatic activity (EBP): clear inhibition

Compound: CCC(C)(C)c1ccc(CC(C)CN2C[C@@H](C)O[C@@H](C)C2)cc1 (stereo partly shown) [amorolfine, Amorolfine]
formation of MBP+ oligodendrocytes from OPCs (EpiSC-derived OPCs [1]; 72 h): enhanced formation of MBP+ oligodendrocytes
MBP+ oligodendrocyte tracking along and wrapping of microfibers (EpiSC-derived OPCs [2]): significantly enhanced MBP+ oligodendrocyte tracking along and wrapping of the microfibers

Compound: Clc1ccc(COC(Cn2ccnc2)c2ccc(Cl)cc2Cl)c(Cl)c1 (stereo not shown) [miconazole, Miconazole]
IC50 (rat CYP51): 300 to 700 nM
sterol intermediate accumulation in human glioma cell line [3]: caused accumulation of the expected sterol intermediates
8,9-unsaturated sterol accumulation in human cortical spheroids [4]: led to 8,9-unsaturated sterol accumulation

Compound: OCCOCCN1CCN(C(c2ccccc2)c2ccc(Cl)cc2)CC1 (stereo not shown) [Hydroxyzine 2HCl]
cell viability (% relative to DMS0) (EpiSC-derived OPCs [5]): 134.19%
% 0ligos (EpiSC-derived OPCs [5]): 40.63%
fold induction at 2 µM (EpiSC-derived OPCs [5]): 4.8
inhibition of EBP enzymatic activity (EBP): directly inhibiting EBP enzymatic activity

IC50 (rat CYP51): 300 to 700 nM
Compound: CC(=O)N1CCN(c2ccc(OCC3COC(Cn4ccnc4)(c4ccc(Cl)cc4Cl)O3)cc2)CC1 (stereo not shown) [Ketoconazole]
% 0ligos (EpiSC-derived OPCs [5]): 52.77%
MBP+ oligodendrocyte tracking along and wrapping of microfibers (EpiSC-derived OPCs [2]): significantly enhanced MBP+ oligodendrocyte tracking along and wrapping of the microfibers

Compound: OCCOc1ccc(/C(=C(/CCCl)c2ccccc2)c2ccccc2)cc1 [ospemifene, Ospemifene]
antiestrogen effect on estrogen-dependent growth (T47D cells): comparable antiestrogen effects
enzyme inhibited in OPCs as indicated by sterol profile (OPCs): did not inhibit EBP in OPCs
formation of MBP+ oligodendrocytes from OPCs (EpiSC-derived OPCs [1]): did not enhance differentiation to MBP+ oligodendrocytes

IC50 (rat CYP51): 300 to 700 nM
Compound: Clc1ccccc1C(c1ccccc1)(c1ccccc1)n1ccnc1 [Clotrimazole]
cell viability (% relative to DMS0) (EpiSC-derived OPCs [5]): 112.83% and 122.50%
fold induction at 2 µM (EpiSC-derived OPCs [5]): 3.85

Compound: Cc1cc(C)c(CNC(=O)c2cc(-c3ccc(CN4CCOCC4)cc3)cc3c2cnn3C2CCCC2)c(=O)[nH]1 [EPZ005687]
cell viability (% relative to DMS0) (EpiSC-derived OPCs [5]): 91.36%
% 0ligos (EpiSC-derived OPCs [5]): 50.00%
fold induction at 2 µM (EpiSC-derived OPCs [5]): 5.9
sterol levels / sterol intermediate accumulation in OPCs (OPCs): uniquely caused accumulation of zymosterol and zymostenol in OPCs
formation of MBP+ oligodendrocytes from OPCs (EpiSC-derived OPCs [1]; 72 h): enhanced oligodendrocyte formation in both our mouse epiblast stem cell-derived OPCs and mouse primary OPCs
inhibition of EBP enzymatic activity (EBP): directly inhibiting EBP enzymatic activity

Compound: CC(C(O)c1ccc(O)cc1)N1CCC(Cc2ccccc2)CC1 (stereo not shown) [lfenprodil Tartrate]
remyelination of LPC lesion (LPC-lesioned spinal cord): remyelination was widespread throughout the lesion
cell viability (% relative to DMS0) (EpiSC-derived OPCs [5]): 103.79%
cell viability (% relative to DMS0) (EpiSC-derived OPCs [5]; listed as lfenprodil tartrate): 106.02%
fold induction at 2 µM (EpiSC-derived OPCs [5]): 4.89
sterol intermediate accumulation in human glioma cell line [3]: caused accumulation of the expected sterol intermediates
blood brain barrier penetration [6]: known to cross the mouse blood brain barrier
8,9-unsaturated sterol accumulation in human cortical spheroids [4]: led to 8,9-unsaturated sterol accumulation
accumulation of 8,9-unsaturated sterols in brain (mouse brain): induced significant accumulation of 8,9-unsaturated sterols in the brain

Compound: CN1[C@@H]2CC[C@H]1C[C@@H](OC(c1ccccc1)c1ccccc1)C2 [benztropine, Benztropine]
sterol levels / sterol intermediate accumulation in OPCs (OPCs): induced accumulation of zymostenol and zymosterol and decreased basal sterol levels
oligodendrocyte formation in combination with ketoconazole (EpiSC-derived OPCs [1]; 72 h): did not enhance differentiation above levels seen for ketoconazole alone
inhibition of EBP enzymatic activity (EBP): clear inhibition

enzyme inhibited in OPCs as indicated by sterol profile (OPCs; 24 h): inhibited EBP
Compound: CN(C)CCOc1ccc(/C(=C(/CCCl)c2ccccc2)c2ccccc2)cc1 [toremifene, Toremifene]
antiestrogen effect on estrogen-dependent growth (T47D cells): comparable antiestrogen effects
formation of MBP+ oligodendrocytes from OPCs (EpiSC-derived OPCs [1]; 72 h): enhanced MBP+ oligodendrocyte generation over a wide dose range
